# Columns and labels:
# [1] = system: Multidrug-Resistant Escherichia coli (E. coli) Strain; assay type: cell-based; conditions: NB medium, 37 °C, 18 h, three independent measurements
# Description: The standard strains of S. aureus ATCC 43300, E. faecalis ATCC 29212, E. coli ATCC 25922, and P. aeruginosa ATCC 27853 were obtained from the American Type Culture Collection (ATCC). L. monocytogenes CVCC 3764 and B. cereus CVCC 4101 were obtained from the National Center for Veterinary Culture Collection (CVCC). S. castellani CGMCC 1.1869 was obtained from the China General Microbiological Culture Collection Center. The multidrug-resistant strain Escherichia coli was obtained from the research base of the Chongqing Academy of Animal Sciences (Chongqing, China). All strains were cultured in nutrient broth overnight at 37 °C to a logarithmic growth phase before each experiment.
# MIC was determined using the broth microdilution method with minor modification. In brief, bacteria (S. aureus ATCC 43300, E. faecalis ATCC 29212, E. coli ATCC 25922, P. aeruginosa ATCC 27853, L. monocytogenes CVCC 3764, B. cereus CVCC 4101, S. Castellani CGMCC 1.1869, and the multidrug-resistant E. coli strain) were cultured in nutrient broth (NB) medium (Macklin, Shanghai, China) to the logarithmic phase and diluted to 1 × 10^6 colony forming units (CFUs)/mL. The MDLs were dissolved to a final concentration of 256~0.25 μg/mL in NB medium using two-fold dilutions. […]
# [2] = fetal bovine serum, human serum, and human plasma; cited from earlier work
# Description: However, binding with serum albumin would weaken the detection of the free MDLs and reduce their antibacterial activity.
# [3] = system: trypsin; conditions: cited from earlier work
# Method: (§1) Despite its multiple potential biological activities, the applications for melittin are limited due to its severe hemolytic activity and low proteolytic stability. Melittin results in 50% hemolysis of human red blood cells at a concentration of 2 μM and 100% at 7 μM [19].
# [4] = system: human red blood cells; conditions: cited from earlier work
# Method: as §1
# [5] = system: Enterococcus faecalis (E. faecalis) ATCC 29212; assay type: cell-based; conditions: NB medium, 37 °C, 18 h, three independent measurements
# Method: (§2) MIC was determined using the broth microdilution method with minor modification. In brief, bacteria (S. aureus ATCC 43300, E. faecalis ATCC 29212, E. coli ATCC 25922, P. aeruginosa ATCC 27853, L. monocytogenes CVCC 3764, B. cereus CVCC 4101, S. Castellani CGMCC 1.1869, and the multidrug-resistant E. coli strain) were cultured in nutrient broth (NB) medium (Macklin, Shanghai, China) to the logarithmic phase and diluted to 1 × 10^6 colony forming units (CFUs)/mL. The MDLs were dissolved to a final concentration of 256~0.25 μg/mL in NB medium using two-fold dilutions. A total of 50 μL of different concentrations of the MDL solutions and an equal volume of bacterial suspension were added to a 96-well plate, which was then incubated at 37 °C for 18 h. The minimum concentrations of the MDLs with no visible growth of bacteria were defined as the corresponding MICs. Media containing bacteria without the MDLs were set as the negative control. Each measurement was performed independently three times.
# [6] = system: Shigella castellani (S. castellani) CGMCC 1.1869; assay type: cell-based; conditions: NB medium, 37 °C, 18 h, three independent measurements
# Method: as §2
# [7] = system: Bacillus cereus (B. cereus) CVCC 4101; assay type: cell-based; conditions: NB medium, 37 °C, 18 h, three independent measurements
# Method: as §2
# [8] = system: swine erythrocytes; assay: Hemolytic activity assay; assay type: cell-based; conditions: swine erythrocytes in PBS, 1 h, 37 °C; concentration more than 4 μg/mL
# Method: The hemolytic activity of the MDLs was evaluated as described previously with minor modification. Swine erythrocytes were collected by centrifugation at 1000 rpm for 5 min, washed three times, and suspended to a final concentration of 8% vol/vol with PBS (Macklin, Shanghai, China). Equal volumes of erythrocyte suspension and the MDLs solutions at various concentrations were mixed in a 96-well plate and incubated for 1 h at 37 °C. After centrifugation at 1000 rpm for 10 min, the supernatant was transferred to a 96-well plate. The supernatant optical density (OD) was measured at 490 nm using a microplate reader (BioTek, Winooski, VT, USA). Untreated erythrocytes and erythrocytes treated with 1% Triton X-100 (Merck, Darmstadt, Germany) were employed as the negative and positive controls, respectively. The hemolysis percentage was calculated using the following equation: Hemolysis rate%=OD490(lipopeptide)−OD490(PBS)/OD490(1% Triton X-100)−OD490(PBS)×100%
# [9] = system: pepsin; conditions: after 2 h of incubation; cited from earlier work
# Description: Poor protease stability is one of the main factors that has limited melittin’s clinical application.
structure (smiles),measurement,setting,value
"CC[C@H](C)[C@H](NC(=O)CN)C(=O)NCC(=O)N[C@@H](C)C(=O)N[C@H](C(=O)N[C@@H](CC(C)C)C(=O)N[C@@H](CCCCN)C(=O)N[C@H](C(=O)N[C@@H](CC(C)C)C(=O)N[C@H](C(=O)N[C@H](C(=O)NCC(=O)N[C@@H](CC(C)C)C(=O)N1CCC[C@H]1C(=O)N[C@@H](C)C(=O)N[C@@H](CC(C)C)C(=O)N[C@H](C(=O)N[C@@H](CO)C(=O)N[C@@H](Cc1c[nH]c2ccccc12)C(=O)N[C@H](C(=O)N[C@@H](CCCCN)C(=O)N[C@@H](CCCNC(=N)N)C(=O)N[C@@H](CCCCN)C(=O)N[C@@H](CCCNC(=N)N)C(=O)N[C@@H](CCC(N)=O)C(=O)N[C@@H](CCC(N)=O)C(N)=O)[C@@H](C)CC)[C@@H](C)CC)[C@@H](C)O)[C@@H](C)O)C(C)C)C(C)C [Mel, Melittin]",MIC,[1],64 µg/mL
same,stability in serum and plasma,[2],stable
same,melittin left after incubation with trypsin,[3]; after 60 min of incubation,almost no melittin is left
same,digestion by trypsin,[3],digested rapidly
same,concentration resulting in 50% hemolysis,[4],2 µM
same,concentration resulting in 100% hemolysis,[4],7 µM
same,MIC,[5],16 µg/mL
same,MIC,[6],32 µg/mL
same,MIC,[7],16 µg/mL
same,hemolysis rate,[8],rapidly increased
same,degradation by pepsin,[9],entirely degraded
